Measured values published in patent US4880924A, “Novel compounds and use thereof in selective cyclization process” (Nelson Research & Development Co., priority 1986, dated 1989).

Legend:
[1] = biological target: T1, sodium-dependent GABA binding sites (Mus musculus); test: displacement of 3H-GABA from sodium-dependent GABA binding sites in mouse brain membranes (GABA reuptake inactivation process); settings: read-out: Concentration of the test compound showing 50% inhibition of labelled ligand binding
T1 construct: from tissue; host or cells: mouse brain membranes
Method: (§1) The novel compound prepared above was investigated for its potency in interaction with GABA receptor sites in BRAIN. As described in detail in Roberts et. al. J. Neuroscience, Vol. 1, No. 2, pp. 132-140 (1981), two experiments were performed: (1) the potency of the compound in displacing ^3 H-muscimol, a known GABA agonist, from specific GABA receptor sites in mouse brain membranes, and (2) the potency in displacing ^3 H-GABA from sodium-dependent GABA binding sites in mouse brain membranes, which reflects potency for the GABA reuptake inactivation process. […] This reflects very good potency for the compound prepared in Example 4.

GABA receptor sites = test: displacement of 3H-muscimol from specific GABA receptor sites in mouse brain membranes; settings: read-out: Concentration of the test compound showing 50% inhibition of labelled ligand binding
Method: as §1

NCCC(C(=O)O)C1COC(=O)C1 (stereo not drawn) [Example 4, α-(2-aminoethyl)tetrahydro-5-oxo-3-furan acetic acid]
IC50 [1]: 25 µM
IC50 (GABA receptor sites): 2.1 µM
